Assay results as given in patent US11370798B2 (Vertex Pharmaceuticals Incorporated, priority 2012, dated 2022).

System: HCT116 colorectal cancer cells
Assay: Cisplatin sensitization assay (96 h cell viability MTS);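 note: Test-compound concentration that lowers the Cisplatin IC50 by a set fold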
Assay type: cell-based
Conditions: compound and Cisplatin added simultaneously, Cisplatin sensitization value
In short: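 Viability read by MTS (1 h at 37° C) after 96 h co-exposure at 37° C, 5% CO2. Test compound and cisplatin were dosed simultaneously in a full concentration matrix, each 2-fold serially diluted from 10 μM final; sensitization values binned in μM.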

Row | SMILES | Cisplatin Sensitization Assay
1 | CC1(C)CN(C(=O)C2CCN(c3c(F)cncc3NC(=O)c3c(N)nn4cc(F)cnc34)CC2)CCN1 [I-G-27, 2-amino-N-(4-(4-(3,3-dimethylpiperazine-1-carbonyl)piperidin-1-yl)-5-fluoropyridin-3-yl)-6-fluoropyrazolo[1,5-a]pyrimidine-3-carboxamide] | ++ (Cisplatin sensitization value>0.02 μM but <0.2 μM)
2 | Nc1nn2cc(F)cnc2c1C(=O)Nc1cncc(F)c1N1CCC(C(=O)N2CCNC3(CC3)C2)CC1 [I-G-28, N-(4-(4-(4,7-diazaspiro[2.5]octane-7-carbonyl)piperidin-1-yl)-5-fluoropyridin-3-yl)-2-amino-6-fluoropyrazolo[1,5-a]pyrimidine-3-carboxamide] | +++ (Cisplatin sensitization value of <0.02 μM)
3 | CN(C)C(=O)C1CCN(c2c(F)cncc2NC(=O)c2c(N)nn3cc(F)cnc23)CC1 [I-G-29, 2-amino-N-(4-(4-(dimethylcarbamoyl)piperidin-1-yl)-5-fluoropyridin-3-yl)-6-fluoropyrazolo[1,5-a]pyrimidine-3-carboxamide] | +++ (Cisplatin sensitization value of <0.02 μM)
4 | CN(C)CCNC(=O)C1CCN(c2c(F)cncc2NC(=O)c2c(N)nn3cc(F)cnc23)CC1 [I-G-30, 2-amino-N-(4-(4-((2-(dimethylamino)ethyl)carbamoyl)piperidin-1-yl)-5-fluoropyridin-3-yl)-6-fluoropyrazolo[1,5-a]pyrimidine-3-carboxamide] | +++ (Cisplatin sensitization value of <0.02 μM)
5 | CN(C)CCN(C)C(=O)C1CCN(c2c(F)cncc2NC(=O)c2c(N)nn3cc(F)cnc23)CC1 [I-G-31, 2-amino-N-(4-(4-((2-(dimethylamino)ethyl)(methyl)carbamoyl)piperidin-1-yl)-5-fluoropyridin-3-yl)-6-fluoropyrazolo[1,5-a]pyrimidine-3-carboxamide] | +++ (Cisplatin sensitization value of <0.02 μM)
6 | Nc1nn2cc(F)cnc2c1C(=O)Nc1cncc(F)c1N1CCC(C(=O)N2CCN(C3COC3)CC2)CC1 [I-G-32, 2-amino-6-fluoro-N-[5-fluoro-4-[4-[4-(oxetan-3-yl)piperazine-1-carbonyl]-1-piperidyl]-3-pyridyl]pyrazolo[1,5-a]pyrimidine-3-carboxamide] | +++ (Cisplatin sensitization value of <0.02 μM)
7 | CNC(=O)C1CCN(c2c(F)cncc2NC(=O)c2c(N)nn3cc(F)cnc23)CC1 [I-G-33, 2-amino-6-fluoro-N-(5-fluoro-4-(4-(methylcarbamoyl)piperidin-1-yl)pyridin-3-yl)pyrazolo[1,5-a]pyrimidine-3-carboxamide] | +++ (Cisplatin sensitization value of <0.02 μM)
8 | CNC1CN(C(=O)C2CCN(c3c(F)cncc3NC(=O)c3c(N)nn4cc(F)cnc34)CC2)C1 [I-G-34, 2-amino-6-fluoro-N-(5-fluoro-4-(4-(3-(methylamino)azetidine-1-carbonyl)piperidin-1-yl)pyridin-3-yl)pyrazolo[1,5-a]pyrimidine-3-carboxamide] | +++ (Cisplatin sensitization value of <0.02 μM)
9 | Nc1nn2cc(F)cnc2c1C(=O)Nc1cncc(F)c1N1CCC(C(=O)N2CCN(C3CCC3)CC2)CC1 [I-G-35, 2-amino-N-(4-(4-(4-cyclobutylpiperazine-1-carbonyl)piperidin-1-yl)-5-fluoropyridin-3-yl)-6-fluoropyrazolo[1,5-a]pyrimidine-3-carboxamide] | +++ (Cisplatin sensitization value of <0.02 μM)
10 | Nc1nn2cc(F)cnc2c1C(=O)Nc1cncc(F)c1N1CCC(C(=O)N2CCOCC2)CC1 [I-G-36, 2-amino-6-fluoro-N-(5-fluoro-4-(4-(morpholine-4-carbonyl)piperidin-1-yl)pyridin-3-yl)pyrazolo[1,5-a]pyrimidine-3-carboxamide] | +++ (Cisplatin sensitization value of <0.02 μM)
11 | Nc1nn2cc(F)cnc2c1C(=O)Nc1cncc(F)c1N1CCC(C(=O)NC2COC2)CC1 [I-G-37, 2-amino-6-fluoro-N-(5-fluoro-4-(4-(oxetan-3-ylcarbamoyl)piperidin-1-yl)pyridin-3-yl)pyrazolo[1,5-a]pyrimidine-3-carboxamide] | ++ (Cisplatin sensitization value>0.02 μM but <0.2 μM)
12 | CN1CCN(C(=O)C2CCN(c3c(F)cncc3NC(=O)c3c(N)nn4cc(F)cnc34)CC2)CC12CC2 [I-G-38, 2-amino-6-fluoro-N-(5-fluoro-4-(4-(4-methyl-4,7-diazaspiro[2.5]octane-7-carbonyl)piperidin-1-yl)pyridin-3-yl)pyrazolo[1,5-a]pyrimidine-3-carboxamide] | +++ (Cisplatin sensitization value of <0.02 μM)
13 | COCCN(C)C(=O)C1CCN(c2c(F)cncc2NC(=O)c2c(N)nn3cc(F)cnc23)CC1 [I-G-40, 2-amino-6-fluoro-N-(5-fluoro-4-(4-((2-methoxyethyl)(methyl)carbamoyl)piperidin-1-yl)pyridin-3-yl)pyrazolo[1,5-a]pyrimidine-3-carboxamide] | +++ (Cisplatin sensitization value of <0.02 μM)
14 | Nc1nn2cc(F)cnc2c1C(=O)Nc1cncc(F)c1N1CCC(C(=O)N2CC(O)C2)CC1 [I-G-41, 2-amino-6-fluoro-N-(5-fluoro-4-(4-(3-hydroxyazetidine-1-carbonyl)piperidin-1-yl)pyridin-3-yl)pyrazolo[1,5-a]pyrimidine-3-carboxamide] | +++ (Cisplatin sensitization value of <0.02 μM)
15 | Nc1nn2cc(F)cnc2c1C(=O)Nc1cncc(F)c1N1CCC(C(=O)NCCN2CCC2)CC1 [I-G-42, 2-amino-N-(4-(4-((2-(azetidin-1-yl)ethyl)carbamoyl)piperidin-1-yl)-5-fluoropyridin-3-yl)-6-fluoropyrazolo[1,5-a]pyrimidine-3-carboxamide] | +++ (Cisplatin sensitization value of <0.02 μM)
16 | Nc1nn2cc(F)cnc2c1C(=O)Nc1cncc(F)c1N1CCC(C(=O)N2CC(N3CCCC3)C2)CC1 [I-G-43, 2-amino-6-fluoro-N-(5-fluoro-4-(4-(3-(pyrrolidin-1-yl)azetidine-1-carbonyl)piperidin-1-yl)pyridin-3-yl)pyrazolo[1,5-a]pyrimidine-3-carboxamide] | +++ (Cisplatin sensitization value of <0.02 μM)
17 | Nc1nn2cc(F)cnc2c1C(=O)Nc1cncc(F)c1N1CCC(C(=O)N2CC3CCC(C2)N3)CC1 [I-G-44, N-(4-(4-(3,8-diazabicyclo[3.2.1]octane-3-carbonyl)piperidin-1-yl)-5-fluoropyridin-3-yl)-2-amino-6-fluoropyrazolo[1,5-a]pyrimidine-3-carboxamide] | +++ (Cisplatin sensitization value of <0.02 μM)
18 | C[C@@H]1CN(C(=O)C2CCN(c3c(F)cncc3NC(=O)c3c(N)nn4cc(F)cnc34)CC2)CCN1 [I-G-45, (R)-2-amino-6-fluoro-N-(5-fluoro-4-(4-(3-methylpiperazine-1-carbonyl)piperidin-1-yl)pyridin-3-yl)pyrazolo[1,5-a]pyrimidine-3-carboxamide] | +++ (Cisplatin sensitization value of <0.02 μM)
19 | Nc1nn2cc(F)cnc2c1C(=O)Nc1cncc(F)c1N1CCC(C(=O)N2CCN3CCC2C3)CC1 (centres unmarked) [I-G-46, N-(4-(4-(1,4-diazabicyclo[3.2.1]octane-4-carbonyl)piperidin-1-yl)-5-fluoropyridin-3-yl)-2-amino-6-fluoropyrazolo[1,5-a]pyrimidine-3-carboxamide] | +++ (Cisplatin sensitization value of <0.02 μM)
20 | C[C@H]1CN(C(=O)C2CCN(c3c(F)cncc3NC(=O)c3c(N)nn4cc(F)cnc34)CC2)CCN1C [I-G-47, (S)-2-amino-N-(4-(4-(3,4-dimethylpiperazine-1-carbonyl)piperidin-1-yl)-5-fluoropyridin-3-yl)-6-fluoropyrazolo[1,5-a]pyrimidine-3-carboxamide] | +++ (Cisplatin sensitization value of <0.02 μM)
21 | Nc1nn2cc(F)cnc2c1C(=O)Nc1cncc(Cl)c1N1CCC(C(=O)N2CCNCC2)CC1 [I-G-48, 2-amino-N-(5-chloro-4-(4-(piperazine-1-carbonyl)piperidin-1-yl)pyridin-3-yl)-6-fluoropyrazolo[1,5-a]pyrimidine-3-carboxamide] | +++ (Cisplatin sensitization value of <0.02 μM)
22 | Nc1nn2cc(F)cnc2c1C(=O)Nc1cncc(F)c1N1CCC(C(=O)N2CC(N3CCC3)C2)CC1 [I-G-49, N-(4-(4-([1,3′-biazetidine]-1′-carbonyl)piperidin-1-yl)-5-fluoropyridin-3-yl)-2-amino-6-fluoropyrazolo[1,5-a]pyrimidine-3-carboxamide] | +++ (Cisplatin sensitization value of <0.02 μM)
23 | C[C@@H]1CN(C(=O)C2CCN(c3c(F)cncc3NC(=O)c3c(N)nn4cc(F)cnc34)CC2)CCN1C [I-G-50, (R)-2-amino-N-(4-(4-(3,4-dimethylpiperazine-1-carbonyl)piperidin-1-yl)-5-fluoropyridin-3-yl)-6-fluoropyrazolo[1,5-a]pyrimidine-3-carboxamide] | +++ (Cisplatin sensitization value of <0.02 μM)
24 | Nc1nn2cc(F)cnc2c1C(=O)Nc1cncc(F)c1N1CCC(C(=O)N2CC3CNCC3C2)CC1 (centres unmarked) [I-G-51, 2-amino-6-fluoro-N-(5-fluoro-4-(4-(octahydropyrrolo[3,4-c]pyrrole-2-carbonyl)piperidin-1-yl)pyridin-3-yl)pyrazolo[1,5-a]pyrimidine-3-carboxamide] | +++ (Cisplatin sensitization value of <0.02 μM)
25 | CN1C2CCC1CN(C(=O)C1CCN(c3c(F)cncc3NC(=O)c3c(N)nn4cc(F)cnc34)CC1)C2 [I-G-52, 2-amino-6-fluoro-N-(5-fluoro-4-(4-(8-methyl-3,8-diazabicyclo[3.2.1]octane-3-carbonyl)piperidin-1-yl)pyridin-3-yl)pyrazolo[1,5-a]pyrimidine-3-carboxamide] | +++ (Cisplatin sensitization value of <0.02 μM)
26 | CN1CC2CC1CN2C(=O)C1CCN(c2c(F)cncc2NC(=O)c2c(N)nn3cc(F)cnc23)CC1 (centres unmarked) [I-G-53, 2-amino-6-fluoro-N-(5-fluoro-4-(4-(5-methyl-2,5-diazabicyclo[2.2.1]heptane-2-carbonyl)piperidin-1-yl)pyridin-3-yl)pyrazolo[1,5-a]pyrimidine-3-carboxamide] | +++ (Cisplatin sensitization value of <0.02 μM)
